Experimental findings from paper PMC7029560, “Functional characterization of acyl-CoA binding protein in Neospora caninum” (Parasites & Vectors, 2020) are described below.

The target in the test is T1, NcACBP (rNcACBP-GST) (Neospora caninum, UniProt F0VR91).
T1 construct: gene NCLIV_066640
T1 sequence (F0VR91 1-95): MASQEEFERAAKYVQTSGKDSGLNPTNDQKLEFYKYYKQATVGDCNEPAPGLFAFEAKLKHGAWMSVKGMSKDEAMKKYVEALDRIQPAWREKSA
Put plainly: fluorescence binding assay (SpectraMax M5, […] nm). The following applies: 1 uM GST-fusion protein, 0-0.3 uM ligand, PBS, room temperature, 5 min; labelled compound.

As a reminder, the Kd is the concentration at which binding is half-saturated. The substance NBD-C16:0-CoA showed a Kd of 11.7 nM.
